Test [1] relates to rat heart. As to the kind of experiment: Coronary Blood Flow Evaluation: isolated perfused rat heart. The note with it: for activation at 1 µM / inhibition at 1 µM: 1 × 10^-6 Molar; for activation at 0.1 µM / inhibition at 0.1 µM: 1 × 10^-7 Molar; for activation at 0.01 µM / inhibition at 0.01 µM: 1 × 10^-8 Molar; for activation at 3 µM / inhibition at 3 µM: 3 × 10^-6 Molar; for activation at 0.3 µM / inhibition at 0.3 µM: 3 × 10^-7 Molar; for activation at 0.03 µM / inhibition at 0.03 µM: 3 × 10^-8 Molar. As for the experimental part:
The usefulness of the compounds of the present invention as agents effective to treat angina, is shown by their effectiveness in standard pharmacological test procedures, for example, in causing significant increase in coronary blood flow in rats. This test procedure is described in the following paragraphs.
Male rats (400-600 gms) are pretreated with Na heparin 2000 units and anesthetized with Na pentobarbital (50 mg/kg) administered intraperitoneally. Once anesthetized, the rat heart is rapidly excised, the ascending aorta fitted to the aortic perfusion cannula, and secured with a ligature. The coronary arteries were perfused initially at a rate of about 15 ml/min for two to three minutes, after which they are perfused at constant pressure of 70 mm Hg and temperature of 37° C. The electrocardiogram (ECG) is recorded using two platinum electrodes positioned at the base and apex of the left venticle. A second heart is excised, cannulated, and perfused by the same method outlined above. Both hearts are tested in parallel. The standard physiological salt solution (PSS) is a modified Krebs-Hanseleit bicarbonate buffer of the following composition in mM concentration: NaCl, 127; NaHCO3, 25; dextrose, 5.5; Na Pyruvate, 2.0; KCl, 4.7; MgSO4, 1.1; KH2 PO4, 1.2; CaCl2.2H2 O, 2.5; CaNa2 EDTA, 0.05.
A 30-minute stabilization period is observed before starting the test protocol.
The microprocessor control system is a servo mechanism which permits coronary perfusion pressure (CPP) and drug concentration to be maintained constant independent of changes in coronary flow. The level at which CPP and drug concentration are maintained can be changed by commands communicated through the microprocessor keyboard. Dose-response curves are carried out by perfusing concentrated drug solution (DC) at rates proportional to total coronary flow (CFT). Drug concentrations are increased by proportionate increases in the rate of DC infusion over CFT via the microprocessor keyboard. The proportional flow rates for DC:CFT is about 0.0002:1 at the low end and 0.02:1 at the high end of the dose-response curve. Dose-response curves encompassing at least two log doses are carried out by preparing two DCs with a concentration difference of 1:100. Following the first dose range of two log doses, the DC are switched, proportional pumping rate adjusted, and the dose-responsecurve continued for another two log doses. The standard dose-response curve is carried out in one-half log dose increments starting at a subthreshold dose and ending at a dose which produces near maximal response in activity. Standard reference compounds are tested over the range of 10^-9 to 10^-6 M.
Measurements are for heart rate (HR) and coronary flow (CF). Units are: HR, beats/minute (bpm) and CF, milliliters/minute (ml/min). HR is calculated from the ECG strip chart recording and CF is calculated by recording analog outputs from pumps 1 and 2. Outputs from pump #1=CFT and the output from pump #2=CF for heart B (CFB). CF for heart A (CFA) is calculated (CFT -CFB =CFA).
Using the above techniques, the effects of the compound of Examples 1, 2 and 3 are as follows indicating the compound of Example 3 is preferred to increase coronary blood flow.

Test [2] addresses T1, adenosine A1 receptor (Rattus norvegicus, UniProt P25099).
T1 construct: Whole brain minus cerebellum and brainstem from male Long Evans rats; from tissue; host or cells: rat whole brain minus cerebellum and brainstem, membranes
T1 sequence (P25099 1-326): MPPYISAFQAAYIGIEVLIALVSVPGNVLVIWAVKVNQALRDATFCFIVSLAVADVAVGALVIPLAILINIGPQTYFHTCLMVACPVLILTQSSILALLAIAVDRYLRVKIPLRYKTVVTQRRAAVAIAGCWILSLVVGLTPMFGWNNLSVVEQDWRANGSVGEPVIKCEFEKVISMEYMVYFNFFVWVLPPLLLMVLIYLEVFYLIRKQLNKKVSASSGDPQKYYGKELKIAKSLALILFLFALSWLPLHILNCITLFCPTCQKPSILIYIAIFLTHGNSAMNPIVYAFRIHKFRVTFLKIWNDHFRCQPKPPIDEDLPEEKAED
As to the kind of experiment: Adenosine Receptor Binding--A1 Receptor Affinity (RBA1), [3H]-CHA displacement, rat whole brain membranes. Also on record: species or system rat (male Long Evans). As to conditions: 1.0 nM [3H]-CHA, 25° C., one hour, read-out: IC50 for adenosine A1 receptor affinity (RBA-1). How it is done:
Whole brain minus cerebellum and brainstem from male Long Evans rats (150-200 g) was homogenized in 30 volumes of ice-cold 0.05M Tris-HCl buffer pH 7.7 using a Brinkman Polytron PT-10, (setting number 6 for 20 seconds) and centrifuged for ten minutes at 20,000×g (Sorvall RC-2), 4° C. The supernatant was discarded, and the pellet was resuspended and centrifuged as before. The pellet was resuspended in 20 ml Tris-HCl buffer containing two International Units/ml of adenosine deaminase (Sigma type III from calf intestinal mucosa), incubated at 37° C. for 30 minutes, then subsequently at 0° C. for ten minutes. The homogenate was again centrifuged, and the final pellet was resuspended in ice-cold 0.05M Tris-HCl buffer pH 7.7 to a concentration of 20 mg/ml original wet tissue weight and used immediately.
Tissue homogenate (10 mg/ml) was incubated in 0.05M Tris-HCl buffer pH 7.7 containing 1.0 nM [^3 H]-N^6 -cyclohexyladenosine ([^3 H]-CHA) with or without test agents in triplicate for one hour at 25° C. Incubation volume was 2 ml. Unbound [^3 H]-CHA was separated by rapid filtration under reduced pressure through Whatman glass fiber (GF/B) filters. The filters were rinsed three times with 5 ml of ice cold 0.05M Tris-HCl buffer pH 7.7. The radio-labeled ligand retained on the filter was measured by liquid scintillation spectrophotometry after shaking the filters for one hour or longer on a mechanical shaker in 10 ml of Beckman Ready-Solv HP scintillation cocktail.
Nonspecific binding was defined as the binding which occurred in the presence of 1 mM theophylline. The concentration of test agent which inhibited 50% of the specific binding (IC50) was determined by nonlinear computer curve fit. The Scatchard plot was calculated by linear regression of the line obtained by plotting the amount of radioligand bound (pmoles/gram of tissue) versus [formula] […] The Hill coefficient was calculated by linear regression of the line obtained by plotting the log of the bound radioligand vs the log of the [formula] The maximal number of binding sites (Bmax) was calculated from the Scatchard plot.

Test [3] deals with T2, adenosine A2 receptor (Rattus norvegicus, UniProt P30543).
T2 construct: Brains were thawed and then kept on ice while the striata were dissected out; tissue Pel-Freez (Rogers, Ark.); host or cells: rat striatum, membranes
As to the kind of experiment: Adenosine Receptor Binding--A2 Receptor Affinity (RBA2), [3H]NECA displacement, rat striatal membranes. Also on record: species or system rat (Sprague-Dawley; Long-Evans). As to conditions: 4 nM [3H]NECA, 50 nM N6-cyclopentyladenosine, 25° C., 60 min, read-out: IC50 for adenosine A2 receptor affinity (RBA-2). As for the experimental part:
Brains from 200-500 g mixed sex Sprague-Dawley rats were purchased from Pel-Freez (Rogers, Ark.). Fresh brains from male Long-Evans hooded rats (Blue Spruce Farms, Altamont, NY) gave essentially identical results. Brains were thawed and then kept on ice while the striata were dissected out. Striata were disrupted in 10 vol of ice-cold 50 mM Tris.HCl (pH 7.7 at 25° C., pH 8.26 at 5° C.) (Tris) for 30 seconds in a Polytron PT-10 (Brinkmann) at setting 5. The suspension was centrifuged at 50,000×g for ten minutes, the supernatant discarded, the pellet resuspended in 10 vol ice-cold Tris as above, recentrifuged, resuspended at 1 g/5 ml, and stored in plastic vials at -70° C. (stable for at least six months). When needed, tissue was thawed at room temperature, disrupted in a Polytron, and kept on ice until used.
All incubations were for 60 minutes at 25° C. in 12×75 mm glass tubes containing 1 ml Tris with 5 mg original tissue weight of rat weight of rat striatal membranes, 4 nM [^3 H]-N-ethyl adenosine-5'-carboxamide ([^3 H]NECA), 50 nM N^6 -cyclopentyladenosine (to eliminate A1 receptor binding), 10 mM MgCl2, 0.1 units/ml of adenosine deaminase and 1% dimethylsulfoxide. N^6 -Cyclopentyladenosine was dissolved at 10 mM in 0.02N HCl and diluted in Tris. […]
Incubations were terminated by filtration through 2.4 cm GF/B filters under reduced pressure. […] Filters were put in scintillation vials, 8 ml of Formula 947 scintillation fluid added, and the vials left overnight, shaken, and counted in a liquid scintillation counter at 40% efficiency.
Nonspecific binding was defined as binding in the presence of 100 μM N^6 -cyclopentyladenosine, and specific binding was defined as total binding minus nonspecific binding. The IC50 was calculated by weighted nonlinear least squares curve-fitting to the mass-action equation. […]
Weighting factors were calculated under the assumption that the standard deviation was proportional to the predicted value of Y. Nonspecific binding was treated as a very large (inifinite) concentration of drug in the computer analysis.

Setting [4] is: read-out: coronary flow (CF), % increase.
The mark [5] stands for this setting: read-out: heart rate (HR), % decrease.

The text below walks through data of patent US4614732A, “N^6 -acenaphthyl adenosines and analogs thereof” (Warner-Lambert Company, priority 1985, dated 1986).

T2 sequence (P30543 whole entry): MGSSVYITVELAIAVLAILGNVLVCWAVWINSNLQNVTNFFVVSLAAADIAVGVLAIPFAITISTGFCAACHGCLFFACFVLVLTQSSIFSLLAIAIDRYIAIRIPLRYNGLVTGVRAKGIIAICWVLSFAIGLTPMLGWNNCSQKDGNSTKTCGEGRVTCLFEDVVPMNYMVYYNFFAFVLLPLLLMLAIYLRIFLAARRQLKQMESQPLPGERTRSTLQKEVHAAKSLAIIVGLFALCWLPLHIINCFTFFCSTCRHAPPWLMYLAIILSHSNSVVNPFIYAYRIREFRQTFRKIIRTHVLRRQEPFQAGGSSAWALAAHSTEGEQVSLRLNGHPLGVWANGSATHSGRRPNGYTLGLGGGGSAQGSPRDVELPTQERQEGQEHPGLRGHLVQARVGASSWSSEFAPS

By IC50 is commonly meant the midpoint of a concentration-inhibition curve. For the compound `OC[C@H]1O[C@@H](n2cnc3c(NC4Cc5cccc6cccc4c56)ncnc32)[C@H](O)[C@@H]1O` (stereo partly drawn) [Example 1, N^6 -Acenaphthyladenosine], in test [1] (setting [4]), the activation at 1 µM was found to be 44%, the activation at 0.1 µM was determined as 27%, the activation at 0.01 µM came out at 0% and the activation at 3 µM was 49%. For the same compound, in test [1] (setting [4]), the activation at 0.3 µM worked out at 40% and the activation at 0.03 µM turned out to be 7%. For the same compound, in test [1] (setting [5]), the inhibition at 1 µM stood at 5%, the inhibition at 0.1 µM is 2%, the inhibition at 0.01 µM is 1% and the inhibition at 3 µM came to 8%. In addition, in test [1] (setting [5]), the inhibition at 0.3 µM worked out at 2% and the inhibition at 0.03 µM turned out to be 0%. In addition, the half-inhibitory concentration (IC50) in test [2] worked out at 640 nM. Also, in test [3], the 50% inhibitory concentration (IC50) was 950 nM.

As for `OC[C@H]1O[C@@H](n2cnc3c(NCC4=Cc5cccc6cccc4c56)ncnc32)[C@H](O)[C@@H]1O` [Example 2, N^6-(1-acenaphthylenylmethyl)adenosine], in test [1] (setting [4]), the activation at 1 µM turned out to be 62%, the activation at 0.01 µM is 37%, the activation at 0.3 µM is 60% and the activation at 0.03 µM worked out at 48%. For the same compound, in test [1] (setting [5]), the inhibition at 1 µM was 30%, the inhibition at 0.01 µM was 1%, the inhibition at 0.3 µM was 25% and the inhibition at 0.03 µM stood at 4%. For the same compound, the activation at 0.001 µM in test [1] (1 × 10^-9 Molar, read-out: coronary flow (CF), % increase) came out at 2%. Besides, the inhibition at 0.001 µM in test [1] (1 × 10^-9 Molar, read-out: heart rate (HR), % decrease) is -1%. Further, the activation at 0.003 µM in test [1] (3 × 10^-9 Molar, read-out: coronary flow (CF), % increase) was determined as 7%. In addition, the inhibition at 0.003 µM in test [1] (3 × 10^-9 Molar, read-out: heart rate (HR), % decrease) is -1%. Besides, in test [2], the IC50 stood at 92 nM. Further, the IC50 in test [3] was 63 nM.

`OC[C@H]1O[C@@H](n2cnc3c(NCC4Cc5cccc6cccc4c56)ncnc32)[C@H](O)[C@@H]1O` (stereo partly drawn) [Example 3, N^6-[(1,2-Dihydro-1-acenaphthylenyl)methyl]adenosine]: in test [1] (setting [4]), the activation at 1 µM was found to be 62%, the activation at 0.1 µM was 58%, the activation at 0.01 µM is 41% and the activation at 3 µM worked out at 67%. In addition, in test [1] (setting [4]), the activation at 0.3 µM was determined as 67% and the activation at 0.03 µM was found to be 49%. Moreover, in test [1] (setting [5]), the inhibition at 1 µM amounted to 65%, the inhibition at 0.1 µM was found to be 36%, the inhibition at 0.01 µM came to 2% and the inhibition at 3 µM amounted to 68%. In test [1] (setting [5]), the inhibition at 0.3 µM was determined as 44% and the inhibition at 0.03 µM was 8%. Also, the IC50 in test [2] worked out at 6 nM. Further, the half-maximal inhibitory concentration (IC50) in test [3] worked out at 24 nM.
